# What was measured:
# [1] = test system: MCF7 cells; experiment: PrestoBlue viability assay; assay type: cell-based, Human
# Description: Cell viability was measured using the resazurin-based PrestoBlue reagent (A-13261, ThermoFisher Scientific). Briefly, 5 × 10^3 MCF7 cells were seeded into 96-well black plates. When cells were attached mDIVI1 or vehicle were added to the cells. After 2 or 5 days, PrestoBlue reagent was added to the cells and incubated for 2 hours. Plates were finally read using a FluoStar Omega plate reader (BMG Labtech) at an excitation wavelength of 544 and an emission wavelength of 590 nm. Background measurements were subtracted from all values.
# [2] = test system: MCF7 cells; experiment: Bradford assay (protein content); assay type: cell-based, Human
# Description: Extracellular acidification rate (ECAR) and oxygen consumption rate (OCR) were measured in a XF96 Extracellular Flux Analyzer (Seahorse Biosciences). Briefly, 1 × 10^4 MCF7 cells per well were seeded in XF96 plates and incubated with complete medium. When cells were attached, mDIVI1 and vehicle treatments were added. Six replicates were run for each condition. After 48 hours, un-buffered DMEM XF medium supplemented with 2 mM glutamine (pH 7.4) was added to the cells, and placed in a 37° C CO2-free incubator for 1 hour. Ten mM glucose, 1 μM oligomycin and 100 mM 2-deoxyglucose (2-DG) were injected into the media at different time points and ECAR was measured. Likewise, ECAR and OCR were quantified using un-buffered DMEM XF medium supplemented with 2 mM glutamine, 2 mM sodium pyruvate and 10 mM glucose. One μM oligomycin, 0.9 μM FCCP and 1 μM rotenone and antimycin A were injected into the media at different time points and OCR and ECAR were measured.
# Cells were finally lysed with 0.1 M NaOH and protein lysate was subsequently stained with Quick Start™ Bradford 1× Dye Reagent (500–0205, BioRad) to normalise results. All parameters were calculated according to manufacturer.
# [3] = test system: MCF7 cells; experiment: Mitochondrial mass quantification (MitoTracker Deep Red, flow cytometry); assay type: cell-based, Human; settings: 50 µM, 5 days, vs vehicle
# Description: To measure mitochondrial mass, cells were stained with MitoTracker Deep Red (M22426, Invitrogen). Briefly, 2 × 10^5 MCF7 cells per well were seeded in 6-well plates. When cells were attached, mDIVI1 and vehicle treatments were added for 2 days or 5 days in triplicate. Cells were then incubated for 15 min at 37° C with the 10 nM Mitotracker Deep Red probe diluted in PBS ([…], Sigma). All subsequent steps were performed in the dark. Cells were washed in PBS, harvested, and re-suspended in PBS. Mitotracker signal was quantified as mean fluorescent intensity of the viable cell population in a Fortessa flow cytometer (BD Bioscience). Results were analyzed using FlowJo software.
# [4] = test system: MCF7 cells; experiment: Extracellular flux analysis (ECAR and OCR, Seahorse XF96); assay type: cell-based, Human; settings: 48 hours
# [5] = test system: A375 melanoma; experiment: Tumorsphere formation assay, A375; assay type: cell-based; settings: five days
# Description: A single cell suspension was prepared using enzymatic (1× Trypsin-EDTA, T3924, Sigma Aldrich), and manual disaggregation (25 gauge needle). Cells were plated at a density of 5000 cells/well in tumorsphere media (DMEM-F12/B27/EGF (20ng/ml)/Pen-Strep) in non-adherent conditions, in 6-well plates coated with (2-hydroxyethylmethacrylate) (poly-HEMA, P3932, Sigma) in the presence of mDIVI1 or vehicle. After 5 days of culture in a humidified incubator at 37° C, tumorspheres bigger than 50 μm were counted using an eye piece graticule.
# [6] = test system: MCF7 cells; experiment: Scratch assay (wound closure); assay type: cell-based, Human; settings: 48 hours
# Description: A hundred thousand MCF7 cells per well were seeded in 12-well plates. When cells were attached, a horizontal scratch was performed using the tip of a pipette. Immediately after, the media was removed and either fresh vehicle-containing media or mDIVI1-containing media were added to the cells for 48 hours. Four replicates were used for each condition. Cells were incubated in a 5% CO2 atmosphere at 37° C in an Incucyte ZOOM System (Essen Bioscience). The wound closure was monitored by taking pictures of each well every 4 hours. At the end of the treatment, pictures of the wells at 0 and 48 hours were analysed using ImageJ software to calculate wound closure according to the following formula: Percentage wound closure=[(wound area0h−wound area48h)/wound area0h]×100
# [7] = test system: TGFβ signalling; experiment: Luciferase reporter assay MCF7-GFP-SMAD(luc); assay type: cell-based, Human; settings: 50 µM, 2 and 5 days
# Description: (§1) The Cignal Lenti reporter assay (luc) was used to monitor the activity of several signalling pathways in MCF7-GFP cells as explained previously. Luciferase Assay System (E1501, Promega) was performed according to manufacturer’s instructions. 1 × 10^4 MCF7 were seeded in black-walled 96 well plates. When cells were attached, drug treatments were added for 18, 48 hours and 5 days. After treatment, Luciferase Assay was performed according to manufacturer’s instructions and light signal was acquired in the Xenogen VivoVision IVIS Lumina. Results were normalized by SRB staining of cells grown in 96-well plates in parallel.
# (§2) SRB (S9012, Sigma) measures total biomass by staining cellular proteins. After treatment, cells were fixed in 10% tricloroacetic acid (T9159, Sigma) for 1 hour at 4° C, stained with SRB (S9012, Sigma) for 15 minutes, and washed 3 times with 1% acetic acid (27225, Sigma). The incorporated die was solubilized with 10 mM Tris Base, pH 8.8 (T1503, Sigma). Absorbance was spectrophotometrically measured at 562 nm in a FluoStar Omega plate reader (BMG Labtech). Background measurements were subtracted from all values.
# [8] = test system: Wnt signalling; experiment: Luciferase reporter assay MCF7-GFP-TCF/LEF(luc); assay type: cell-based, Human; settings: 50 µM, 2 and 5 days
# Description: as §1, §2
# [9] = test system: E-cadherin; experiment: Western blotting; assay type: cell-based, Human; settings: MCF7 cells
# Description: At the end of the treatment, cells in suspension were spun down and lysed and attached cells were directly lysed in RIPA lysis buffer (R0278, Sigma) containing proteinase inhibitors (05 892 970 001, Roche) and kept at 4° C for 20 minutes with rotation. Lysates were cleared by centrifugation for 10 minutes at 10,000 xg and supernatants were collected. […] Bound antibodies were detected using a horseradish peroxidase-conjugated secondary antibody (ab6789 and ab6721, Abcam) and signal was obtained using Supersignal West Pico chemiluminiscent substrate (34087, ThermoScientific). Pictures were taken in a ChemiDoc XRS with Image Lab Software (BioRad).
structure (smiles),measurement,setting,value
"COc1cc(-n2c(=S)[nH]c3ccccc3c2=O)c(Cl)cc1Cl [mDIVI1, 3-(2,4-Dichloro-5-methoxyphenyl) 2,3-dihydro 2-thioxo-4(1H) quinazolinone]",effect on MCF7 cell viability,"[1]; 10 µM, 48 hours",did not decrease viability
same,reduction of MCF7 cell viability,"[1]; 10 µM, five days",20%
same,reduction of MCF7 cell viability,"[1]; 50 µM, 48 hours",20%
same,reduction of MCF7 cell viability,"[1]; 50 µM, five days",over 65%
same,reduction of MCF7 cell viability,"[1]; 100 µM, 48 hours",20%
same,reduction of MCF7 cell viability,"[1]; 100 µM, five days",85%
same,effect on MCF7 protein content,"[2]; 10 µM, 48 hours",slightly decreased
same,effect on MCF7 protein content,"[2]; 20 µM, 2 days",significantly reduced
same,reduction of MCF7 protein content,"[2]; 50 µM, 48 hours",~40%
same,Mitotracker Deep Red mean fluorescence intensity (mitochondrial mass),[3],significantly higher
same,basal glycolysis (ECAR),[4],did not have a significant effect
same,oxygen consumption linked to ATP production,[4],significantly reduced
same,oxygen consumption linked to basal respiration,[4],significantly reduced
same,spare respiratory capacity,[4]; all mDIVI1 concentrations,slightly increased
same,OCR/ECAR ratio,[4]; vs vehicle,decreased dose-dependently
same,oxygen consumption linked to maximal respiration,"[4]; to a lesser extent, at higher concentrations",significantly reduced
same,glycolytic capacity (ECAR),[4]; ≥10 µM,reduced
same,glycolytic reserve (ECAR),[4]; ≥10 µM,reduced
same,decrease of A375 tumorsphere forming capacity,[5]; 10 µM,over 35%
same,decrease of A375 tumorsphere forming capacity,[5]; 50 µM,over 90%
same,reduction of percentage of wound closure vs vehicle,[6]; 10 µM,14%
same,reduction of percentage of wound closure vs vehicle,[6]; 50 µM,44%
same,TGFβ/SMAD pathway luciferase activity,[7],strikingly caused the inhibition
same,Wnt/TCF pathway luciferase activity,[8],strikingly caused the inhibition
same,E-cadherin expression (immunoblot),[9],reduction in the expression

# Reference: publication PMC5862576, “Mitochondrial fission as a driver of stemness in tumor cells: mDIVI1 inhibits mitochondrial function, cell migration and cancer stem cell (CSC) signalling” (Oncotarget, 2018)
